Laboratory results reported in patent US20220117940A1, “COMPOSITION FOR INCREASING PREGNANCY RATE OF RUMINANTS AND PREPARATION METHOD AND APPLICATION THEREOF” (CHINA AGRICULTURAL UNIVERSITY, priority 2020, published 2022).
Marks after values point to notes of the source that are not given here.

Columns and labels:
Holstein cows = test: Serum reproductive hormone levels after melatonin injection in cows exposed to ovsynch TAI; format: in vivo; details: mean ± standard error; for P (progesterone) levels: pregnant cows, Day 30 of pregnancy; for P (progesterone) levels / E2 (estradiol) levels / LH levels: P<0.05; for E2 (estradiol) levels / LH levels / FSH levels: serum; for E2 (estradiol) levels / LH levels: 8 hours after injection of GnRH plus melatonin; for FSH levels: after melatonin with last dose of GnRH, no significant change (P>0.05)
Source text: The process is substantially same as that of Example 2, except that blood was collected at each stage from ovsynch TAI to pregnancy tests, in order to determine the changes in relevant reproductive hormones in ovulating cows.

[1] = tested on: Holstein cows exposed to TAI; test: Pregnancy and calving rates of cows exposed to ovsynch TAI with melatonin injection; format: in vivo
Experimental: A melatonin injection of 2-3 mL was injected in combination with the injection of GnRH of ovsynch TAI in cows (as shown in FIG. 1), with B-scan pregnancy tests on Days 32-35, or pregnancy tests by recto-vaginal technique on Day 60. The pregnancy rates were calculated.
2 mL of the injection prepared in Example 1 was administrated together with the last injection of GnRH to multipara Holstein cows (1-3 pregnancies) exposed to postpartum ovsynch TAI. In this process, a randomized administration approach was used, for example administer to every other cow in which the first cow was administrated, the second was not administrated, the third was administrated, and so on.
(§1) 50 to 60 days after the insemination, the pregnancy tests were performed on the Holstein cows by means of rectal examination. Alternatively, 32 days after the insemination, the pregnancy rates were calculated by means of B-scan ultrasonography and pregnancy detection kits.

[2] = tested on: Holstein cows exposed to natural ovulation; test: Pregnancy and calving rates of cows exposed to natural ovulation with melatonin injection; format: in vivo
Experimental: as §1

[3] = tested on: cows exposed to TAI or natural ovulation; test: Pregnancy and calving rates of first insemination in cows (TAI or natural ovulation) with melatonin injection; format: in vivo, Holstein cows
Experimental: as §1

mouse = details: 5 mg/kg injected before the MT1 receptor peak; cited from earlier work
[4] = Serum MT concentration after melatonin injection in cows exposed to ovsynch TAI (liquid chromatography); details: melatonin injected with last dose of GnRH, PG-PG-GnRH-PG-GnRH ovsynch TAI, mean ± standard error, P<0.05 vs no melatonin
[5] = first insemination, TAI plus natural ovulation, of 162

COc1ccc2[nH]cc(CCNC(C)=O)c2c1 [Melatonin, N-acetyl-5-methoxytryptamine]
P (progesterone) levels (Holstein cows): 0.18±0.02
P (progesterone) levels (Holstein cows; listed as MT): 0.1825±0.0235
E2 (estradiol) levels (Holstein cows): 11.68±0.88
LH levels (Holstein cows): 5.02±0.23
E2 (estradiol) levels (Holstein cows; listed as MT): 11.678±0.8834
LH levels (Holstein cows; listed as MT): 5.022±0.2324
FSH levels (Holstein cows): 2.48±0.25
FSH levels (Holstein cows; listed as MT): 2.482±0.2463
Pregnancy rate ([1]; TAI, 2 mL of 15 mg/mL injection with last GnRH, P<0.05 vs control): 36.26%^a
Number of pregnant cows ([1]; TAI, 2 mL of 15 mg/mL injection with last GnRH, of 91 cows): 33
Calving rate ([1]; TAI, P<0.05 vs control): 25.27%^a
Number of calves ([1]; TAI, of 91 cows): 23
Increase of pregnancy rate relative to control ([1]; multipara cows, ovsynch TAI, 9.68/26.58): more than 36.42%
Increase of pregnancy rate ([1]; preparation comprising melatonin of 15 mg/mL, cows exposed to ovsynch TAI): 11%
Increase of pregnancy rate relative to control ([2]; 14.60/26.25): more than 55.62%
Calving rate ([2]; P<0.05 vs control): 29.58%^A
Pregnancy rate ([2]; P<0.05 vs control): 40.85%^A
Number of calves ([2]; of 71 cows): 21
Number of pregnant cows ([2]; of 71 cows): 29
Increase of pregnancy rate relative to control ([3]; TAI or natural ovulation, 11.85/26.42): more than 44.85%
Pregnancy rate of first insemination ([3]; TAI plus natural ovulation, P<0.05 vs control): 38.27%^a
Calving rate ([3]; first insemination, TAI plus natural ovulation, P<0.05 vs control): 27.16%^a
Number of calves [3, 5]: 44
Number of pregnant cows [3, 5]: 62
Expression of corpus luteum marker genes Akr1c18 and Cyp11a1 (mouse): upregulate
Level of progesterone in mouse serum (mouse): significantly increase
MT levels in blood (serum) [4]: 4.35±0.53
MT levels in blood (serum) ([4]; listed as MT): 4.3465±0.5286
